In ChEMBL document CHEMBL4330108, “The association between anti-tumor potency and structure-activity of protein-kinases inhibitors based on quinazoline molecular skeleton” (Bioorg Med Chem, 2019) one finds IC50 and inhibition data, which are given here for 15 compounds.

Test [1] deals with T1, Vascular endothelial growth factor receptor 2 (Homo sapiens, UniProt P35968). Nature of the test: Inhibition of VEGFR2 (unknown origin) using FAM-labelled peptide as substrate measured after 10 mins.
Test [2] concerns the target T1, Vascular endothelial growth factor receptor 2.
Test [3] has as its target Vascular endothelial growth factor receptor 1 (Homo sapiens, UniProt P17948). The test can be described thus: Inhibition of VEGFR1 (unknown origin).
Test [4] deals with Vascular endothelial growth factor receptor 3 (Homo sapiens, UniProt P35916). The test can be described thus: Inhibition of VEGFR3 (unknown origin).
Test [5] deals with Epidermal growth factor receptor (Homo sapiens, UniProt P00533). Nature of the test: Inhibition of EGFR (unknown origin).
The target in test [6] is Receptor tyrosine-protein kinase erbB-2 (Homo sapiens, UniProt P04626). The test can be described thus: Inhibition of HER2 (unknown origin).
Test [7] deals with Serine/threonine-protein kinase B-raf (Homo sapiens, UniProt P15056, V600E). Nature of the test: Inhibition of recombinant human GST-fused B-Raf V600E mutant using MEK1 as substrate measured after 60 mins by HTRF assay. In general terms: Time-resolved FRET reads energy transfer from a long-lived donor to a nearby acceptor.
A short description of test [8]: Inhibition of PI3K (unknown origin) using PIP2 as substrate measured after 2 hrs by luciferase-luciferin […] assay. On the set-up: species or system Homo sapiens. In general terms: A reporter such as luciferase makes a cellular process visible.
The nature of test [9]: Inhibition of PI3K (unknown origin). Also on record: species or system Homo sapiens.
A further test addresses Histone deacetylase 1 (Homo sapiens, UniProt Q13547). Nature of the test: Inhibition of HDAC1 (unknown origin) using HDAC substrate by AFC probe based immunoprecipitation assay.
Test [10] deals with Serine/threonine-protein kinase B-raf (Homo sapiens) (UniProt P15056). Nature of the test: Inhibition of wild-type B-Raf (unknown origin) at 10 uM relative to control.
Test [11] is described as follows: Inhibition of bovine brain PI3K using phosphatidylinositol as substrate preincubated for 5 mins followed by [gamma-32P]ATP addition and measured after 10 mins by liquid scintillation counting method. Also on record: species or system Bos taurus.

Usually IC50 stands for the concentration at which inhibition is half-maximal. The inhibition is how much of the control response was suppressed.

T1 sequence (P35968 whole entry): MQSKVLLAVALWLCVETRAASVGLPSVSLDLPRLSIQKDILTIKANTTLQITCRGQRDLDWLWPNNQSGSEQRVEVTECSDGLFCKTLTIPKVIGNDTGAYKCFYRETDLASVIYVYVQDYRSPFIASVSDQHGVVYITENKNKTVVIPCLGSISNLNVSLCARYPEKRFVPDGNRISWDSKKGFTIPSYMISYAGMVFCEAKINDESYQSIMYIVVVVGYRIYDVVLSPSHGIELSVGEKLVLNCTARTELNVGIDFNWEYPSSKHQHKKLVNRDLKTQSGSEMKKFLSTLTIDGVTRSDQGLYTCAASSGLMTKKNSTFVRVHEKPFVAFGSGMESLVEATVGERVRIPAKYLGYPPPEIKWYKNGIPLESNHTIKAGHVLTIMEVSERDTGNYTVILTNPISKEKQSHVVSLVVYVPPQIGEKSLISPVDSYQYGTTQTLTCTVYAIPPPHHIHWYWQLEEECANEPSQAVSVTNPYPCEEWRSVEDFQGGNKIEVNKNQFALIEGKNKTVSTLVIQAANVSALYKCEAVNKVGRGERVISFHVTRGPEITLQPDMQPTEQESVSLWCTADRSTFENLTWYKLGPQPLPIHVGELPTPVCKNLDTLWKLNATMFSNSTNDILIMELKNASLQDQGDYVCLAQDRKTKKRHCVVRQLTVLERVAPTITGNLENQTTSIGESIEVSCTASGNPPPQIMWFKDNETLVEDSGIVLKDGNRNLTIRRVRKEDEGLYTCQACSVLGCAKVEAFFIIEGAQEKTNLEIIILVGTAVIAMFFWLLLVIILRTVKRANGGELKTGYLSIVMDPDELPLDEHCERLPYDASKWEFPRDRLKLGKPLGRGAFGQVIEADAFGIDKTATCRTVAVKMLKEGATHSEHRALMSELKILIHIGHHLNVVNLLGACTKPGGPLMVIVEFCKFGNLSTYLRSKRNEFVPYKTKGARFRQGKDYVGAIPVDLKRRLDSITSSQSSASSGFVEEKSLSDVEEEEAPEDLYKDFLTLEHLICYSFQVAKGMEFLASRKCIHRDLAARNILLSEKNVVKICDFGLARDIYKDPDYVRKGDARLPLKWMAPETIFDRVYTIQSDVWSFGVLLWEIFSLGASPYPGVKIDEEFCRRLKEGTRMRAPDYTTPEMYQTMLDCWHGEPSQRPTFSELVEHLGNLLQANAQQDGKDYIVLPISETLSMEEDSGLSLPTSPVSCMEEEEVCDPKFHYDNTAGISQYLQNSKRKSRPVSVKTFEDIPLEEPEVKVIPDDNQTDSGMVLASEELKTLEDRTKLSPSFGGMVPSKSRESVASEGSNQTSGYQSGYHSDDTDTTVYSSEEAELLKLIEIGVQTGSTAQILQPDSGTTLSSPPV
Vascular endothelial growth factor receptor 1, sequence (P17948 whole entry): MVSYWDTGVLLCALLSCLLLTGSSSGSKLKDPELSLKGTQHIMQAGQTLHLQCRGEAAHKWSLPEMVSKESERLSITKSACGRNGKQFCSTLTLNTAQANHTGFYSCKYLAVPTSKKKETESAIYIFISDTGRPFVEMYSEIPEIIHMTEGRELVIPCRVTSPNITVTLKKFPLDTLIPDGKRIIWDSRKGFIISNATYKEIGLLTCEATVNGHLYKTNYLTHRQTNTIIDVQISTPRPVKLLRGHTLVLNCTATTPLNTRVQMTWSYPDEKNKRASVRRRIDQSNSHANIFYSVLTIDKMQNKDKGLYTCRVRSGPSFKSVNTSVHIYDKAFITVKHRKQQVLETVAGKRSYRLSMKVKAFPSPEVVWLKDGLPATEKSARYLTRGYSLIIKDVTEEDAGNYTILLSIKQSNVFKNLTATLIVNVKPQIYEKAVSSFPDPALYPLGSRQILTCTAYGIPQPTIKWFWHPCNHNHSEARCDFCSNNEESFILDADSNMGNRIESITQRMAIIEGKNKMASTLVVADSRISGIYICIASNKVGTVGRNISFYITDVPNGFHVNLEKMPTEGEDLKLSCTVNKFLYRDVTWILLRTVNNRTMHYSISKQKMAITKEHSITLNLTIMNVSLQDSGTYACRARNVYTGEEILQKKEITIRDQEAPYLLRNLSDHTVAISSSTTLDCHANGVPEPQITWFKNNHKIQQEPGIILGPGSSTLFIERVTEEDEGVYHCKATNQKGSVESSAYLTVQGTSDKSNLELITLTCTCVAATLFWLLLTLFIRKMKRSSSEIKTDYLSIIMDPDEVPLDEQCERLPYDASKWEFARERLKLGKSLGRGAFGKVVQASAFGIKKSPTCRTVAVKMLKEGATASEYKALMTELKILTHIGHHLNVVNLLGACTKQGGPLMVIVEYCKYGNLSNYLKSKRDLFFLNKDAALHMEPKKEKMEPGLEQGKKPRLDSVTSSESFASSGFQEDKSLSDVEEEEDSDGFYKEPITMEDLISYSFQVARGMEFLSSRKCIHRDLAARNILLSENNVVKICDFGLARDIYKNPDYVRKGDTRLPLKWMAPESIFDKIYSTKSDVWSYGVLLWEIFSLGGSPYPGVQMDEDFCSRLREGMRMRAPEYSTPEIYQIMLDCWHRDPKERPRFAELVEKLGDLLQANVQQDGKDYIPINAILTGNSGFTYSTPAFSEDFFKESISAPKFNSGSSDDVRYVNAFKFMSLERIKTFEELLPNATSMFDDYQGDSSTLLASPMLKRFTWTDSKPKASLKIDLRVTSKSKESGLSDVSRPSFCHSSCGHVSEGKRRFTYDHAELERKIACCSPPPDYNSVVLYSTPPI
Vascular endothelial growth factor receptor 3, sequence (P35916 whole entry): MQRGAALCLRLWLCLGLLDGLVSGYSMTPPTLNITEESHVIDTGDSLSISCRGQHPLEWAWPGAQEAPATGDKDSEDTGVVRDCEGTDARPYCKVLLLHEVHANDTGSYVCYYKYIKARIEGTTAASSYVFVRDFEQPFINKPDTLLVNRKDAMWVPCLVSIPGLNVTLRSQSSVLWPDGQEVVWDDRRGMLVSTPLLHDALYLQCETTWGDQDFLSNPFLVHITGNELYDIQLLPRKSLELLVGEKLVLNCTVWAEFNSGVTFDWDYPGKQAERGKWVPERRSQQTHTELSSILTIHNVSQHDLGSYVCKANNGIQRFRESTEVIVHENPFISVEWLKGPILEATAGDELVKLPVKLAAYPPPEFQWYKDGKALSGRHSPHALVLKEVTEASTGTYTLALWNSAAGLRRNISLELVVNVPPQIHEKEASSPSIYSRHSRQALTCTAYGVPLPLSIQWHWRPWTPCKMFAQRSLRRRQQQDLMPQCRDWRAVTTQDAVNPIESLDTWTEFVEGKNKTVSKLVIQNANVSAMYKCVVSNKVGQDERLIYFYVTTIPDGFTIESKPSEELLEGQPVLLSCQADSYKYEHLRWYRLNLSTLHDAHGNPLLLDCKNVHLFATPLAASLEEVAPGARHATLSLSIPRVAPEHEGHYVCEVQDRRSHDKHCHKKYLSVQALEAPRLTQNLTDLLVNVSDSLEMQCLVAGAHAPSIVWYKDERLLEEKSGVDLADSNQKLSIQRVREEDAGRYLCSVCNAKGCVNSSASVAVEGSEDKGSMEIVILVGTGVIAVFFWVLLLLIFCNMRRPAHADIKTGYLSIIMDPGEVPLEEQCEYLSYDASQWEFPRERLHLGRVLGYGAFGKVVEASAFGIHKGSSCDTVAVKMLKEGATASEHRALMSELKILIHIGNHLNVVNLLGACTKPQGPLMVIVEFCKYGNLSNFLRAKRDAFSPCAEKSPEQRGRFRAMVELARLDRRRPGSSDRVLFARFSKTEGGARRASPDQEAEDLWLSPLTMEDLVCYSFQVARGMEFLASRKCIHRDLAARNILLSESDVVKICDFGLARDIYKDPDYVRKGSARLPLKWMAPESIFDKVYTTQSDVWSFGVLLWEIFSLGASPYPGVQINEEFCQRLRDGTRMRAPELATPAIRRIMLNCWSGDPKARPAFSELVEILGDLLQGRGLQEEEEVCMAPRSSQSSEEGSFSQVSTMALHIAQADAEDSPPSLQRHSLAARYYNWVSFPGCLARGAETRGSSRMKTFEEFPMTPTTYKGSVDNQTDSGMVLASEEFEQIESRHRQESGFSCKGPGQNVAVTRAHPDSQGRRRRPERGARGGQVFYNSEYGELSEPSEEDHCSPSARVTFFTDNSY
Histone deacetylase 1, sequence (Q13547 whole entry): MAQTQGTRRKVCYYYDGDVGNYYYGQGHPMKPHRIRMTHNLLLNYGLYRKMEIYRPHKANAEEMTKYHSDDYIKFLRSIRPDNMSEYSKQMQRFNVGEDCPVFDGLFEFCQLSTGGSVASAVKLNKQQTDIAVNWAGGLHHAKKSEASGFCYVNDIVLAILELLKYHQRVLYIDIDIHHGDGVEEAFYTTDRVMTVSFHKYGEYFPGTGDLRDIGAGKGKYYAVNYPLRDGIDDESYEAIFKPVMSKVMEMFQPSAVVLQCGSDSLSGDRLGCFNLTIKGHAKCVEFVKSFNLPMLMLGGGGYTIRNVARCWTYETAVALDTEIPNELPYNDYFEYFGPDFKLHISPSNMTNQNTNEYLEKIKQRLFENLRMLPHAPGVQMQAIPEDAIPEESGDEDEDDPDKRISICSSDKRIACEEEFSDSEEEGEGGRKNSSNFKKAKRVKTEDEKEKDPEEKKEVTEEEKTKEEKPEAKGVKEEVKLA

In test [1], `O=C(Nc1ccc(Nc2ccc([N+](=O)[O-])c3ncnc(O)c23)cc1)Nc1cc(Cl)ccc1Cl` returned an IC50 of 0.042 µM.
Turning to `COc1cc2ncnc(Nc3ccc4c(c3)CCCN4C(=O)Nc3cccc(Cl)c3)c2cc1OC`, the IC50 was found to be 0.0305 µM in test [2], 0.0071 µM in test [3] and 0.0078 µM in [4].
`O=C(Nc1ccc(Nc2ccc([N+](=O)[O-])c3ncnc(O)c23)cc1)Nc1cc(C(F)(F)F)ccc1Cl` showed an IC50 in [1] of 0.012 µM.
On to `CCOc1cc2ncc(C#N)c(Nc3ccc(OCc4ccccn4)c(F)c3)c2cc1NC(=O)/C=C/CN(C)C`, for which the figures for the IC50 in test [5] and in test [6] were 0.092 µM and 0.059 µM, respectively.
Regarding `Cc1ccc(CC[C@@H]2CCN2C)c(NC(=O)Nc2cccc(Oc3ccc4nc[nH]c(=O)c4c3)c2)c1`, the IC50 in test [7] worked out at 0.0039 µM.
As for `Cc1cc(N2CCC(F)(F)C2)cc2c(N3CCc4ccc(C(=O)N5CCC(N)CC5)cc4C3)ncnc12`, the IC50 in [8] is under 0.5 µM.
With `CCOc1cc2ncc(C#N)c(Nc3ccc(Cl)c(F)c3)c2cc1NC(=O)/C=C/CN(C)C`, the IC50 in test [3] turned out to be 1.26 µM.
Take `COc1cc2ncnc(Nc3ccc4c(c3)CCCN4C(=O)Nc3ccc(C(C)=O)cc3)c2cc1OC`: the IC50 in test [2] worked out at 0.0301 µM; in test [3] it was 0.0096 µM; in [4], 0.0173 µM.
As to `c1ccc2c(c1)ccn2-c1ncnc2ccc(-c3ccc4[nH]ccc4c3)cc12`, in test [9], the IC50 fell in the range of 0.1 to 10 µM.
Take `COc1cc2ncnc(Nc3ccc(CC(=O)Nc4cc(-c5cccs5)ccc4N)cc3)c2cc1OC`: half-maximal inhibition against Histone deacetylase 1 (IC50) required 0.178 µM.
Turning to `CCOCCCOc1cc2ncnc(Oc3ccc(NC(=O)Nc4ccc(F)c(C(F)(F)F)c4)cc3)c2cc1N`, the inhibition in [10] is 98.9%.
`Cc1cccc(NC(=O)Nc2ccc(Nc3ccc([N+](=O)[O-])c4ncnc(O)c34)cc2)c1`: in [1], the IC50 is 0.078 µM.
For `O=c1cc(N2CCOCC2)oc2c(-c3ccccc3)cccc12` [LY-294002], in test [11], the IC50 amounted to 1 µM.
For `COc1cccc(NC(=O)N2CCCc3cc(Nc4ncnc5cc(OC)c(OC)cc45)ccc32)c1`, the IC50 in test [2] is 0.0519 µM; in test [3], 0.0055 µM; in [4] it was 0.0142 µM.
`O=C(Nc1ccc(Nc2ccc([N+](=O)[O-])c3ncnc(O)c23)cc1)Nc1cccc(C(F)(F)F)c1` returned an IC50 in test [1] of 0.045 µM.
